{
  "source": "ChEMBL document CHEMBL1201862",
  "about": "“PubChem BioAssay data set” (2004)",
  "key": {"Ephrin type-A receptor 4": {"target": "Ephrin type-A receptor 4 (Mus musculus, UniProt Q03137)", "sequence (Q03137 whole entry)": "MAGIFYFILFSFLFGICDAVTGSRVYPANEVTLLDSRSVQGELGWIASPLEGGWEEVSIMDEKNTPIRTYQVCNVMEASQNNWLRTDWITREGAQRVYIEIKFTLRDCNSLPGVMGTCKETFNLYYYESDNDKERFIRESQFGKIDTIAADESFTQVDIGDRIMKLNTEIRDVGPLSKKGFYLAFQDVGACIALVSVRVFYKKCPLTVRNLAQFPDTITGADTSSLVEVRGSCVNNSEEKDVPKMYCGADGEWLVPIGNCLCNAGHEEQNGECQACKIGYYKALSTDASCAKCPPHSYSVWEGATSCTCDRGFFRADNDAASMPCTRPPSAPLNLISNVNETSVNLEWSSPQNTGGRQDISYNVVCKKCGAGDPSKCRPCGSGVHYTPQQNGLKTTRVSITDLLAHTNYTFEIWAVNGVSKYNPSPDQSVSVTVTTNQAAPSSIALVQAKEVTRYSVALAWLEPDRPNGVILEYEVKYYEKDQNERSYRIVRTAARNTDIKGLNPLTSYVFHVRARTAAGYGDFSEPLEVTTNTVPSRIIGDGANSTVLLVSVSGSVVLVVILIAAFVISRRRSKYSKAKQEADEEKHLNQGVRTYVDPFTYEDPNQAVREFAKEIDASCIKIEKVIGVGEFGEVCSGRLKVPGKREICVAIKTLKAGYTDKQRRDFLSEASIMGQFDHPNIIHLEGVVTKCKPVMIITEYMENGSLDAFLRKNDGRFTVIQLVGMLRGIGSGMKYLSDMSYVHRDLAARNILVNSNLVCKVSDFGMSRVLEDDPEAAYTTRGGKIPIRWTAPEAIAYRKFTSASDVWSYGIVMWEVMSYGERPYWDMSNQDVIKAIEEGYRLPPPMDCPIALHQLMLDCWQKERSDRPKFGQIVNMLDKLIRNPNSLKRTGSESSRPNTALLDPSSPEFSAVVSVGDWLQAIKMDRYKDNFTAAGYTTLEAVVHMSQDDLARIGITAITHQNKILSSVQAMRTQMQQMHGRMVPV", "assay": "EphA4 ligand-binding antagonists – biochemical, colorimetric, mouse EphA4, primary screen (AID 689)", "assay_type": "functional"}, "[1]": {"assay": "HIV-1 Vif–A3G interaction blockers – biochemical, TR-FRET, GST-Vif 1-94, biotin-A3G peptide, dose response retest, primary screen (AID 1117319);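 further: inhibitors lower the FRET signal by blocking Vif and A3G binding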", "assay_type": "functional"}, "Estrogen receptor beta": {"target": "Estrogen receptor beta (Homo sapiens, UniProt Q92731)", "sequence (Q92731 whole entry)": "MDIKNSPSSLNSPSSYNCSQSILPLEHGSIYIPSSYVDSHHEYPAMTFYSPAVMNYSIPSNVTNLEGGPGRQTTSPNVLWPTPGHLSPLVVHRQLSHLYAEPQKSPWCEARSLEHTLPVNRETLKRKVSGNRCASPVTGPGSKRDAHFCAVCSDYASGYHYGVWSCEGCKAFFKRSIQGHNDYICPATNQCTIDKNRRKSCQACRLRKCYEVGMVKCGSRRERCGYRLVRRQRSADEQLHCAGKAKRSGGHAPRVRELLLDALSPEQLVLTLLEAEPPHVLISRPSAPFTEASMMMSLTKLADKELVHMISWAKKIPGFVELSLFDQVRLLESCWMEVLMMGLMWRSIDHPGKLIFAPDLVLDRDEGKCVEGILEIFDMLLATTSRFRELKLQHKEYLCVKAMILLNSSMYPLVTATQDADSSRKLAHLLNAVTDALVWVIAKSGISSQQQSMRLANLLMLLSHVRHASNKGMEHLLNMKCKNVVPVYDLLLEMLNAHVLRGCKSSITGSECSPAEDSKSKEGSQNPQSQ"}, "[2]": {"assay": "IC50 of Artemis nuclease activity blockers – biochemical, fluorescence intensity, dose response (AID 720701);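 further: Artemis endonuclease enzyme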", "assay_type": "functional"}, "[3]": {"assay": "M. tuberculosis growth inhibition, HTS (AID 449762)", "assay_type": "functional"}, "cells [4]": {"assay": "cells", "assay_type": "functional, cell-based"}, "[5]": {"assay": "DRD fibroblast viability loss – cell-based, non-viral oncogenic, luminescence, dose response (AID 1934)", "assay_type": "functional", "conditions": "Homo sapiens"}, "[6]": {"assay": "Luminescent dose response cell-based high throughput screening assay for inhibitors of the Janus kinase 2 mutant JAK2V617F. [Related pubchem assays: 1446 (Primary screen.), 1521 (Confirmation assay.), 1486 (Counter screen.)]", "assay_type": "functional"}, "BJ [7]": {"tested_on": "BJ", "assay": "BJ-TERT fibroblast viability loss – cell-based, RAS-independent, luminescence, dose response (AID 1933)", "assay_type": "functional", "conditions": "Homo sapiens"}, "cells [8]": {"assay": "cells", "assay_type": "functional, cell-based", "remark": "listed apart in the source"}, "BJ [9]": {"tested_on": "BJ", "assay": "BJ-TERT-LT-ST fibroblast viability loss – cell-based, RAS-independent, luminescence, dose response (AID 1935);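 further: BJ fibroblasts immortalized with TERT plus LT and ST oncogenes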", "assay_type": "functional", "conditions": "Homo sapiens"}, "Hexokinase HKDC1": {"target": "T1, Hexokinase HKDC1 (Homo sapiens, UniProt Q2TB90)", "T1 sequence (Q2TB90 whole entry)": "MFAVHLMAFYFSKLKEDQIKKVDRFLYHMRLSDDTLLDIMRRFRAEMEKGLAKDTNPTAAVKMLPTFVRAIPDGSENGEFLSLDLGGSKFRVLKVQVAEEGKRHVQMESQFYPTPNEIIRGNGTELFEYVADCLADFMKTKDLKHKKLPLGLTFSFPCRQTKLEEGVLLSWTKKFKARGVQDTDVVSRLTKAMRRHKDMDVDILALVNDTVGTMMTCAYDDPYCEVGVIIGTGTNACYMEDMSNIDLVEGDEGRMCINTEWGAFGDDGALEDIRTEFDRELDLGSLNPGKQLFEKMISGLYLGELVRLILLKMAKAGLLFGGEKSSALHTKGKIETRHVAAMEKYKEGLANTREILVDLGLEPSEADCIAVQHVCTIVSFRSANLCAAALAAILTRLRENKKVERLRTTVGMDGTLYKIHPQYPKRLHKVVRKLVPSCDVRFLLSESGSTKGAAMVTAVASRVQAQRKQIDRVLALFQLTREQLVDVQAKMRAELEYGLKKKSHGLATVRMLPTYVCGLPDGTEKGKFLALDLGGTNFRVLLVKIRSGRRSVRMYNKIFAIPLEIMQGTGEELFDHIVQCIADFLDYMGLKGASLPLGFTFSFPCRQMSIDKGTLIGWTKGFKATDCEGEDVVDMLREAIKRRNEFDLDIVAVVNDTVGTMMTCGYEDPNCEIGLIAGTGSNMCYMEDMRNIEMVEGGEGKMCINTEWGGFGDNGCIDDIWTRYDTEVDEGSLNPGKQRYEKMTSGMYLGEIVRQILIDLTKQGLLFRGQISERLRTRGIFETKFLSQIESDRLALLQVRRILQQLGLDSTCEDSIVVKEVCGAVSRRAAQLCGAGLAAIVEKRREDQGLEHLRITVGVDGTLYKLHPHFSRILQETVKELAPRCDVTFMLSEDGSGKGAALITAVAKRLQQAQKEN", "assay": "inhibition of HKDC1 glucose phosphorylation – biochemical, W721R variant, dose response (AID 504729)", "assay_type": "functional"}, "[10]": {"assay": "Fluorescence-based cell-based high throughput dose response assay for inhibitors of the interaction of nucleotide-binding oligomerization domain containing 2 (NOD2) and the receptor-interacting serine-threonine kinase 2 (RIPK2).", "assay_type": "functional", "conditions": "Homo sapiens"}, "BJ [11]": {"tested_on": "BJ", "assay": "cells", "assay_type": "functional, cell-based", "conditions": "Homo sapiens"}, "Vero": {"tested_on": "Vero", "assay": "cells", "assay_type": "functional", "conditions": "Chlorocebus sabaeus"}, "[12]": {"assay": "Luminescence Cell-Based Dose Confirmation HTS to Identify Inhibitors of Platelet Dense Granule Release. [Related pubchem assays: 1663 (Primary HTS), 1678 (Summary of Project)]", "assay_type": "functional"}, "[13]": {"target": "Luciferin 4-monooxygenase (Photinus pyralis, UniProt P08659)", "sequence (P08659 whole entry)": "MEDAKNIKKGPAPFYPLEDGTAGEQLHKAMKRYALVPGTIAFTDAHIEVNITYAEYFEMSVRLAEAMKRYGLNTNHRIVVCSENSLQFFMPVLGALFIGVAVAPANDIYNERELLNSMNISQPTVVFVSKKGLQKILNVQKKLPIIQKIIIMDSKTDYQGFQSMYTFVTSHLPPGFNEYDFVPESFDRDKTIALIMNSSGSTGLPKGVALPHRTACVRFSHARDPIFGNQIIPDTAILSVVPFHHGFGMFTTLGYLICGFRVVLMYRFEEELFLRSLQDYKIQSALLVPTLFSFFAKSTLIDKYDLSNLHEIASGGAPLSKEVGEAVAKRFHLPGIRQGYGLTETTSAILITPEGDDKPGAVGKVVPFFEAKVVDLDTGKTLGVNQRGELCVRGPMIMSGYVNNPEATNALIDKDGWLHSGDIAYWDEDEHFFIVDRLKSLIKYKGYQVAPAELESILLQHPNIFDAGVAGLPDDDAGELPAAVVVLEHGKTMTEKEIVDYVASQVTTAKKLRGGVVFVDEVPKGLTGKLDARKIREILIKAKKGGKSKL", "assay": "inhibition of purified Photinus pyralis luciferase – biochemical, luminescence, dose response (AID 1891)"}, "[14]": {"assay": "Fluorescence Cell-Based Dose Response to Identify Inhibitors of Thrombin Receptor-Activating Peptide SFLLRN-Mediated P-Selectin Induction on Platelets. [Related pubchem assays: 1663 (Primary HTS), 1889 (retest at dose ), 1891 (counterscreen), 1678 (Project Summary)]", "assay_type": "functional"}, "[15]": {"target": "Glyceraldehyde-3-phosphate dehydrogenase (Homo sapiens, UniProt P04406)", "sequence (P04406 whole entry)": "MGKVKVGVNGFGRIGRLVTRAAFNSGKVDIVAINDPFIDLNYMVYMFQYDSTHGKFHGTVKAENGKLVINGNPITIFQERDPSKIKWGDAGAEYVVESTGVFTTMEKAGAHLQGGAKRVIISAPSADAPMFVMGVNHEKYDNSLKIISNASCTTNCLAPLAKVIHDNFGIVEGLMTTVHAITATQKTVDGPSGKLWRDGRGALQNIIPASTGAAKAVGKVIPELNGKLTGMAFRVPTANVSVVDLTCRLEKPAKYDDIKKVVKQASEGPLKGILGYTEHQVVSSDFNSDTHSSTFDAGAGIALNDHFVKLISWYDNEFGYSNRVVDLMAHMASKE"}, "Bcl-2-related protein A1 [16]": {"target": "T2, Bcl-2-related protein A1 (Mus musculus, UniProt Q07440)", "T2 sequence (Q07440 whole entry)": "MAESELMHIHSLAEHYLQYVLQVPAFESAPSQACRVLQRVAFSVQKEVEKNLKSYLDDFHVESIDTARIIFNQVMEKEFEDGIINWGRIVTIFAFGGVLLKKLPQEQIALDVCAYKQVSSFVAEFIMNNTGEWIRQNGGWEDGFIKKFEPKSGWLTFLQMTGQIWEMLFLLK", "assay": "Bfl-1 binding inhibitors, SAR follow-up, biochemical, fluorescence polarization (AID 1070)"}, "Bcl-2-related protein A1 [17]": {"target": "T2, Bcl-2-related protein A1", "assay": "displacement of Bid BH3 peptide from Bfl-1 – biochemical, fluorescence polarization, FITC-Bid, mouse, primary screen (AID 432)"}, "Bcl-2-related protein A1 [18]": {"target": "T2, Bcl-2-related protein A1", "assay": "small-molecule antagonists of Bfl-1/BH3 interaction – biochemical, TR-FRET, mouse Bfl-1, confirmation (AID 621);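 further: TR-FRET binding of GST-Bfl-1 to FITC-labelled Bid peptide via terbium antibody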"}, "NADPH oxidase 1 [19]": {"target": "T3, NADPH oxidase 1 (Homo sapiens, UniProt Q9Y5S8)", "T3 sequence (Q9Y5S8 whole entry)": "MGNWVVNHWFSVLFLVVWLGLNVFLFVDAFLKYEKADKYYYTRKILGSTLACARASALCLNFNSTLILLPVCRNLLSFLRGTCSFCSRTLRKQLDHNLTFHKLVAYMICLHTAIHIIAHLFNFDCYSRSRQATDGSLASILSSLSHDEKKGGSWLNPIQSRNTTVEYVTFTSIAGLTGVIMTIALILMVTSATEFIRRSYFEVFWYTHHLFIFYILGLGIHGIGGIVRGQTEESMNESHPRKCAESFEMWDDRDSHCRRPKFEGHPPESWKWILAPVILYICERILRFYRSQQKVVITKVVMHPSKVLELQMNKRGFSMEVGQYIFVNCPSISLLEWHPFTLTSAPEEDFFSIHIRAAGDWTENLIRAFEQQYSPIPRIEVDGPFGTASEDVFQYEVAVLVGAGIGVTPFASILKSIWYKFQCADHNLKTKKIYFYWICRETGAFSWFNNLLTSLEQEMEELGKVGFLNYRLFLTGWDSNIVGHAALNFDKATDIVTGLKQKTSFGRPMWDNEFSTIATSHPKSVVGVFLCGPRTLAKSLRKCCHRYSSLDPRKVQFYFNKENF", "assay": "potency of NOX1 inhibition in cells – cell-based, luminescence, cherry picks 2, dose response (AID 434997)", "assay_type": "functional"}, "NADPH oxidase 1 [20]": {"target": "T3, NADPH oxidase 1", "assay": "Late stage results from the probe development effort to identify inhibitors of NOX1: HEK/293 IC50. [Related pubchem assays: 1796 (Summary AID (NOX1)), 2752 (Primary screen (NOX1 inhibitors, synthesized analogs set 2)), 2664 (Primary screen (NOX1 inhibitors, synthesized analogs)), 1792 (Primary Screen (NOX1)), 2545 (Confirmation screen (NOX1 …", "assay_type": "functional"}},
  "note": "“And” between values parts separate entries of the source, which are not always exact repeats. Equal values may be shown once. The source made the active and inactive calls.",
  "data": [
    {"smiles": "Cc1ccc(C2=N/C(=C\\c3cccs3)C(=O)N2Nc2ccccc2)cc1", "values": [
      {"measurement": "IC50", "setting": "Ephrin type-A receptor 4", "result": "2.91 µM (active)"}
    ]},
    {"smiles": "COc1ccc(NC(=O)CSc2nc3c(cc2C#N)CN(C)CC3)cc1", "values": [
      {"measurement": "IC50", "setting": "[1]", "result": "> 100 µM (active)"},
      {"measurement": "IC50", "setting": "Estrogen receptor beta", "result": "> 50 µM (not active)"},
      {"measurement": "IC50", "setting": "[2]", "result": "> 20 µM (inactive)"}
    ]},
    {"smiles": "Nc1ccc2c(c1)oc1ccccc12", "values": [
      {"measurement": "IC50", "setting": "[3]", "result": "> 100 µM (active)"}
    ]},
    {"smiles": "Cc1nc([N+](=O)[O-])c(Br)n1Cc1ccc(Cl)c(Cl)c1", "values": [
      {"measurement": "EC50", "setting": "cells [4]", "result": "> 350 µM (not active)"},
      {"measurement": "EC50", "setting": "[5]", "result": "9.66 µM (inconclusive)"},
      {"measurement": "IC50", "setting": "[6]", "result": "0.542 µM (active)"},
      {"measurement": "EC50", "setting": "BJ [7]", "result": "9.74 µM (inconclusive)"},
      {"measurement": "EC50", "setting": "cells [8]", "result": "> 350 µM (not active)"},
      {"measurement": "EC50", "setting": "BJ [9]", "result": "> 150 µM (inconclusive)"},
      {"measurement": "IC50", "setting": "Hexokinase HKDC1", "result": "22.8 µM (inactive)"},
      {"measurement": "IC50", "setting": "[10]", "result": "4.39 µM (active)"},
      {"measurement": "EC50", "setting": "BJ [11]", "result": "> 150 µM (not active)"},
      {"measurement": "CC50", "setting": "Vero", "result": "17.5 µM (active)"}
    ]},
    {"smiles": "COC(=O)c1ccccc1NC(=O)Nc1ccc2c(c1)OCO2", "values": [
      {"measurement": "EC50", "setting": "[12]", "result": "5.7 µM (active)"},
      {"measurement": "EC50", "setting": "[13]", "result": "> 112 µM (not active)"},
      {"measurement": "EC50", "setting": "[14]", "result": "< 100 µM (not active)"}
    ]},
    {"smiles": "COc1ccccc1C(=O)C1Nc2ccccc2-c2nnc(SC)nc2O1", "note": "(centres undefined)", "values": [
      {"measurement": "IC50", "setting": "[15]", "result": "> 100 µM (not active)"},
      {"measurement": "IC50", "setting": "Bcl-2-related protein A1 [16]", "result": "> 100 µM (not active)"},
      {"measurement": "IC50", "setting": "Bcl-2-related protein A1 [17]", "result": "4.79 µM (active)"},
      {"measurement": "IC50", "setting": "Bcl-2-related protein A1 [18]", "result": "> 100 µM (not active) and 4.6 µM (active)"}
    ]},
    {"smiles": "COc1cc(-c2nc(-c3ccccc3)c(-c3ccccc3)[nH]2)ccc1O", "values": [
      {"measurement": "IC50", "setting": "NADPH oxidase 1 [19]", "result": "0.37 µM (active)"},
      {"measurement": "IC50", "setting": "NADPH oxidase 1 [20]", "result": "1.81 µM (active)"}
    ]}
  ]
}
